This is an account of results in patent US20210330616A1, “AMELIORATING AGENT FOR OBESITY-RELATED METABOLIC DISEASE” (METABOLIC AND OBESE RESEARCH SCIENCE CORPORATION, priority 2018, published 2021).

The structures appear in SMILES notation. “And” between values parts separate entries of the source, which are not always exact repeats. Equal values may be shown once. Where a name gives a salt, the structure may show the parent alone. Read-outs that look alike come from different tables or passages of the source.

The target in one data set is T1, Helz2 (Homo sapiens, UniProt Q9BYK8).
T1 construct: 3xFLAG (N); made in house; host or cells: HEK293 cells
T1 sequence (Q9BYK8 whole entry): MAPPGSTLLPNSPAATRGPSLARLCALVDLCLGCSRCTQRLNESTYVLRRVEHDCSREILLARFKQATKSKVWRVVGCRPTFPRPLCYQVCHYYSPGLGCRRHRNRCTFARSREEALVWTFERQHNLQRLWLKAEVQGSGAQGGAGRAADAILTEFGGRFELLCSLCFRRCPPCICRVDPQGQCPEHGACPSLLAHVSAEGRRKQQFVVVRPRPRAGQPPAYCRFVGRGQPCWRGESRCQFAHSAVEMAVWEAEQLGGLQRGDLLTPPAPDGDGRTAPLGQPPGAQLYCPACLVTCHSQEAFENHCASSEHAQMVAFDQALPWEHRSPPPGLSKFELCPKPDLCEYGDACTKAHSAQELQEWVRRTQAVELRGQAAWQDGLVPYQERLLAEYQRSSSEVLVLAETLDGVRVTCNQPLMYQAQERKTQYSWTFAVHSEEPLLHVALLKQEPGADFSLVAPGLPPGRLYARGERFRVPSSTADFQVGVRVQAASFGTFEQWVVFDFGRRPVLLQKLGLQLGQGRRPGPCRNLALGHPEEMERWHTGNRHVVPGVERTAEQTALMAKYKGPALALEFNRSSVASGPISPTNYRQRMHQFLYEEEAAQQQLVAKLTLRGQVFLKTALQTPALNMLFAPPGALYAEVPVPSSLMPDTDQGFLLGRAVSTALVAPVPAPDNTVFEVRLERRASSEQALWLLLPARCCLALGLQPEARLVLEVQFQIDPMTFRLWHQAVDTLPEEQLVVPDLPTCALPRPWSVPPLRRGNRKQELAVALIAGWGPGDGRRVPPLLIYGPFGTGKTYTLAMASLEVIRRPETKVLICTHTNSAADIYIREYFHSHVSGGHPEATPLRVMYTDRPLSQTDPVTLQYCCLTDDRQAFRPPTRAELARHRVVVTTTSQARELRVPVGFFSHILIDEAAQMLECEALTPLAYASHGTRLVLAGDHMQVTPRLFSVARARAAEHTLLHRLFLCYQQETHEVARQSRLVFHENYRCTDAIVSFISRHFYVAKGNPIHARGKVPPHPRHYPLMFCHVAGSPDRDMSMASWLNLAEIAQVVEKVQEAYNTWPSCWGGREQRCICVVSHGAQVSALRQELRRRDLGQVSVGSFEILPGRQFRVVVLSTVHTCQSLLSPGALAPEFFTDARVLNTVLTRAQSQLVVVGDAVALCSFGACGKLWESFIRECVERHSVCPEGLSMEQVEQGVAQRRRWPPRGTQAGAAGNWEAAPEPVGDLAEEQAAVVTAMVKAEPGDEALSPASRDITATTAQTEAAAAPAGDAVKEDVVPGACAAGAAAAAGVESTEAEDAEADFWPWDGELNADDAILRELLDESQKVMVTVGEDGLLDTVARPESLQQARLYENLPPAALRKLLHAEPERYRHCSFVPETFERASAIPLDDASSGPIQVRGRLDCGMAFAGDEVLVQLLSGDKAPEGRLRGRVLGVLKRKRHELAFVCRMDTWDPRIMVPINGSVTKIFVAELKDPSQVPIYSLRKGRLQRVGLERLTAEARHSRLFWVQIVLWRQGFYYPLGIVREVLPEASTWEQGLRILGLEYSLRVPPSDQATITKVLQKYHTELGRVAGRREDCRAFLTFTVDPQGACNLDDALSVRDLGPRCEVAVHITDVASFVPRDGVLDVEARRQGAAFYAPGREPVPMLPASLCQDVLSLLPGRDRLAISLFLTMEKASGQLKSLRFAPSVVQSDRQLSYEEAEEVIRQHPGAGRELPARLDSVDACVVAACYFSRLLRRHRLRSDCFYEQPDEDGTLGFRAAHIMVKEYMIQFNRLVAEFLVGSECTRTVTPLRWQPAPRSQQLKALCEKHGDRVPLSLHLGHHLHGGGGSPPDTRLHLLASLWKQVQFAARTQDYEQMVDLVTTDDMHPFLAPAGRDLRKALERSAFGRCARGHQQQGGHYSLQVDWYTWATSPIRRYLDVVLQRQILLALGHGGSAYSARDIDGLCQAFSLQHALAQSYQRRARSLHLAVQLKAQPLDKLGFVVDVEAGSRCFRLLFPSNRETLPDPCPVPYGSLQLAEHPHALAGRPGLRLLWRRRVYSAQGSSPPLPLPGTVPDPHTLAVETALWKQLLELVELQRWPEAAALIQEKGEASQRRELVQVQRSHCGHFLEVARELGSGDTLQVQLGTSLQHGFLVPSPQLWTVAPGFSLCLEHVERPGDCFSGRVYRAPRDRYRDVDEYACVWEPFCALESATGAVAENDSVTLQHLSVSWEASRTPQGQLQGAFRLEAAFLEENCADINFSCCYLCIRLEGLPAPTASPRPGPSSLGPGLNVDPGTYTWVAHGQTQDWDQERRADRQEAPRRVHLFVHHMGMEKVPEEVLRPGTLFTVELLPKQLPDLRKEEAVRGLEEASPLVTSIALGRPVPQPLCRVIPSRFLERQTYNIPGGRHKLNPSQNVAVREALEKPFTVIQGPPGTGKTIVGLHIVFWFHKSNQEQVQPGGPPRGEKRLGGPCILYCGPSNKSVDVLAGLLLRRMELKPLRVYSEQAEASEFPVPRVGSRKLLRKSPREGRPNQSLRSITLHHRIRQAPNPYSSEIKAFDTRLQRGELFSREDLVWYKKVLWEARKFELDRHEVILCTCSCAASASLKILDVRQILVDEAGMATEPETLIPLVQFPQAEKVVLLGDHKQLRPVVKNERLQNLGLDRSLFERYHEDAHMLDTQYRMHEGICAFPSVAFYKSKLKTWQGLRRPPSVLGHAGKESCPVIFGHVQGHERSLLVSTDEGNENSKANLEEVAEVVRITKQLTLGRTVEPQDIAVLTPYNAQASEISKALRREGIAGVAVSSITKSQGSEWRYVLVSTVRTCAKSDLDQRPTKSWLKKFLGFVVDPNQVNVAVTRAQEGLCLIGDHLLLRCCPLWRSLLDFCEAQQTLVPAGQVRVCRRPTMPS
The data set can be described thus: High-throughput screening through surface plasmon resonance for low-molecular-weight compounds that bind to Helz2. The following applies: purified Helz2 protein. The data set is classed as binding. The source says:
1. High-Throughput Screening for Low-Molecular-Weight Compounds that Bind to Helz2
HEK293 cells were allowed to express Helz2 by using a Helz2 expression vector (p3×FLAG-CMV10-pDIP2), and Helz2 protein was purified.
For orientation: In SPR one partner is held on a chip, and binding of the other changes the refractive index at the surface.

The test system of data set [1] is obese mice fed high-fat diet. As to the kind of experiment: Pancreatic weight and pancreatic β-cell function after oral administration to obese mice. The data set is classed as in vivo, mice (C57BL6J). As to conditions: 14-day oral administration, vs physiological saline. On the procedure: (§1) Six-week-old male mice (C57BL6J) were grown with high-fat diet (fat content: 60 kcal %, Research diets, Inc.) or low-fat diet (fat content: 10.5 kcal %, CLEA Japan, Inc.) for 18 weeks. Thereafter, obese mice fed high-fat diet were separated into two groups, and 0.3 mL of physiological saline was orally administered to one group through a gastric tube for mouse, and 0.3 mL of a solution of a low-molecular-weight compound dissolved in physiological saline was orally administered to the other group through the gastric tube for mouse. Oral administration was performed every day over 14 days during 30 minutes before turning lights off at 18:00 (turning lights on at 6:00, 12-hour light-dark cycle, room temperature: 22° C.). […] Thereafter, the organs were stored at −80° C. Hepatic Leprb expression was measured by means of the qRT-PCR.
7. Change in Pancreatic Weight and Pancreatic β-Cell Function after Oral Administration of Low-Molecular-Weight Compound
Pancreatic weight after administration of physiological saline or administration of a low-molecular-weight compound was measured. The pancreatic β-cell function of each mouse was represented by Homeostatic model assessment-β cell function (HOMA-β) {[insulin (mU/L)×20]÷[blood glucose (mM)−3.5]} index (×100) (Brit J Nutr 101:701-708, 2009).

Data set [2] concerns obese mice fed high-fat diet. As to the kind of experiment: Insulin resistance and blood glucose level after oral administration to obese mice. The data set is classed as in vivo, mice (C57BL6J). As to conditions: obese mice, 14-day oral administration, vs physiological saline. The protocol: as §1
6. Change in Insulin Resistance and Blood Glucose Level after Oral Administration of Low-Molecular-Weight Compound
Fasting blood glucose and blood insulin concentration after administration of physiological saline or administration of a low-molecular-weight compound were measured respectively by using an enzyme-electrode method with glucose oxidase and a mouse insulin ELISA kit (Morinaga Institute of Biological Science, Inc.). The insulin resistance of each mouse was represented as Homeostatic model assessment of insulin resistance (HOMA-IR) [insulin (mU/L)×blood glucose (mM)÷22.5] index (×100) (Brit J Nutr 101: 701-708, 2009).

In data set [3] the test system is Leprb gene expression in HepG2 cells. As to the kind of experiment: Leprb gene expression in cultured hepatocyte HepG2 (qRT-PCR). The following applies: HepG2, 10^−9 to 10^−7M, 24 to 48 hours. The data set is classed as cell-based. In general terms: Real-time PCR tracks product formation cycle by cycle.
Description: Identification of Low-Molecular-Weight Compound that Promotes Leprb Expression in Cultured Hepatocytes
Because Leprb gene expression is promoted on lowering of the action of Helz2 through binding of a low-molecular-weight compound, the low-molecular-weight compounds that bound to Helz2 were screened with use of increase of Leprb gene expression in cultured hepatocyte as an index. […] The hepatocytes were cultured at 37° C. for 24 to 48 hours, and Leprb gene expression therein was measured through a quantitative real time polymerase chain reaction (qRT-PCR, TaqMan Gene expression assays using LEPRB probes) method.
The test system of data set [4] is obese mice fed high-fat diet. As to the kind of experiment: Hepatic lipid content after oral administration to obese mice (LipoSEARCH, BODIPY staining). The data set is classed as in vivo, mice (C57BL6J). The following applies: obese mice. On the procedure: as §1
8. Change in Hepatic Lipid Content after Oral Administration of Low-Molecular-Weight Compound
Hepatic Tg and Chol contents after administration of physiological saline or administration of a low-molecular-weight compound were measured by using a LipoSEARCH method (Skylight Biotech, Inc.).
To visualize and quantify the amount of fat accumulated in hepatocyte per cell and change in shape of fat, fat globule fluorescent staining with BODIPY (excitation light: 493 nm; fluorescence: 503 nm) was performed. Staining-positive area and size of staining-positive cell were measured in 10 views per mouse hepatocyte in each group. ANOVA was used for intergroup significance test in FIGS. 8-D and 8-E (****. P<0.001).

For data set [5], the system named is obese mice fed high-fat diet. The data set can be described thus: Blood leptin concentration and food intake after oral administration to obese mice. The data set is classed as in vivo, mice (C57BL6J). On the procedure:
as §1
5. Change in Blood Leptin Concentration and Food Intake after Oral Administration of Low-Molecular-Weight Compound
Blood leptin concentration after administration of physiological saline or administration of a low-molecular-weight compound were measured by using a mouse leptin ELISA kit (Morinaga Institute of Biological Science, Inc.). The daily food intake of each mouse was measured every day before each administration at 18:00.

The test system of data set [6] is obese mice fed high-fat diet. As to the kind of experiment: Daily variation of body weight with oral administration to obese mice. The data set is classed as in vivo, mice (C57BL6J). The following applies: obese mice, 0.32 mg/kg/day oral. On the procedure: as §1
4. Daily Variation of Body Weight with Oral Administration of Low-Molecular-Weight Compound
The body weight of each mouse with administration of physiological saline or administration of a low-molecular-weight compound was measured every day before each administration at 18:00.

Data set [7] concerns obese mice fed high-fat diet. As to the kind of experiment: Blood lipid concentration after oral administration to obese mice. As to conditions: obese mice, 14-day oral administration, fasting, vs physiological saline. The data set is classed as in vivo, mice (C57BL6J). The protocol:
as §1
10. Change in Blood Lipid Concentration after Oral Administration of Low-Molecular-Weight Compound
Fasting blood CM-Tg, VLDL-Tg, LDLc, and HDLc concentrations after administration of physiological saline or administration of a low-molecular-weight compound were measured by using the LipoSEARCH method.

Data set [8] relates to obese mice fed high-fat diet. As to the kind of experiment: Weights of spleen and kidney after oral administration to obese mice. The data set is classed as in vivo, mice (C57BL6J). The following applies: 14-day oral administration, vs physiological saline. The protocol:
as §1
11. Change in Weights of Spleen and Kidney after Oral Administration of Low-Molecular-Weight Compound
The weights of the spleen and kidney after administration of physiological saline or administration of a low-molecular-weight compound were measured.

The next data set has as its system Hepatic Leprb expression. The data set can be described thus: Hepatic Leprb expression with oral administration to obese mice. The data set is classed as in vivo, mice (C57BL6J). The following applies: 0.32 mg/kg/day oral, 14 days, vs physiological saline. The protocol: 3. Hepatic Leprb Expression with Oral Administration of Low-Molecular-Weight Compound
as §1

Data set [9] has as its system obese mice fed high-fat diet. As to the kind of experiment: Weights of fat and muscle after oral administration to obese mice. As to conditions: 14-day oral administration. The data set is classed as in vivo, mice (C57BL6J). The protocol:
as §1
12. Change in Weights of Fat and Muscle after Oral Administration of Low-Molecular-Weight Compound
The amounts of visceral fat, which evokes metabolic disorder, and muscle (right side) after administration of physiological saline or administration of a low-molecular-weight compound were measured.

In data set [10] the test system is obese mice fed high-fat diet. The data set can be described thus: Weights of liver and heart after oral administration to obese mice. The data set is classed as in vivo, mice (C57BL6J). The following applies: 14-day oral administration, vs physiological saline. The protocol:
as §1
9. Change in Weights of Liver and Heart after Oral Administration of Low-Molecular-Weight Compound
The weights of the liver and heart after administration of physiological saline or administration of a low-molecular-weight compound were measured.

On the set-up of data set [11]: key to Body weight / Insulin resistance / Hyperglycemia / Hypertension / Blood LDLc / Blood HDLc / Fatty liver: ↓: lowering or mitigating action; ↑: increasing action; →: no change. The following applies: cited from earlier work.
Setting [12] is: surface plasmon resonance, read-out: KD value for binding to and dissociating from Helz2.
The mark [13] stands for this setting: KD value for binding to and dissociating from Helz2, surface plasmon resonance.
Setting [14] is: 14-day oral administration, vs physiological saline.
Setting [15] is: fatty liver caused by high-fat diet.
The mark [16] stands for this setting: obese mice, 14-day oral administration, vs physiological saline.

Consider `Cc1nc2ccccn2c(=O)c1CCN1CCC(C(=O)c2ccc(F)cc2)CC1` [pirenperone], for which the Kd on Helz2 (setting [12]) is 1 to 490 nM.

Consider `Clc1cccc(Cl)c1N=C1NCCN1` [clonidine hydrochloride], for which, at Helz2 (setting [12]), the Kd is ≥ 1000 nM.

For `CN(C)C(=O)C(CCN1CCC(O)(c2ccc(Cl)cc2)CC1)(c1ccccc1)c1ccccc1` [loperamide hydrochloride], at Helz2 (setting [13]), the Kd was in the range of 1 to 490 nM.

Take `C[C@@H](c1ncncc1F)[C@](O)(Cn1cncn1)c1ccc(F)cc1F` [voriconazole]: on Helz2 (setting [12]), the Kd was 1 to 490 nM.

For `N=C(N)N/N=C/c1c(Cl)cccc1Cl` [guanabenz acetate], the Kd at Helz2 (setting [12]) is 1 to 490 nM and 2.3 nM. Also, in data set [1], the “HOMA-β index (pancreatic β-cell function)” value is “not changed” and the pancreatic weight entry is listed as “not changed”. For the same compound, in [2] (fasting), the blood glucose levels result was “lowered the level of hyperglycemia to that in non-obese mice” and the blood insulin levels result was “mitigated hyperinsulinemia”. The “HOMA-IR index (insulin resistance index)” value in data set [2] is recorded as “suppressed the HOMA-IR index”. Besides, in data set [3], the “Leprb expression in cultured hepatocyte (index of lowering of Helz2 action)” value is given as “Concentration-dependent increase in Leprb expression”. Moreover, in data set [4] (setting [14]), the “hepatic Chol content” value is on record as “significantly reduced” and the “hepatic Tg content” value was “significantly reduced”. Further, in data set [4] (setting [15]), the “fat globule area (BODIPY staining-positive area in hepatocyte)” value is recorded as “significantly decreased” and the “fat globule cell size (size of BODIPY staining-positive cell)” value is reported as “significantly decreased”. In addition, the “blood leptin concentration relative to non-obese mice” value in data set [5] (obese mice after administration, vs non-obese mice (2.3±0.5 ng/mL)) is on record as ≥ 10 fold. In addition, in data set [5] (setting [16]), the blood leptin concentration result was “rather slightly decreased” and the “total food intake accumulation” value is given as “no significant change”. In data set [5] (obese mice, except on day 3 from the beginning of administration, vs physiological saline), the daily food intake entry is on record as “no change in daily food intake”. For the same compound, the body weight gain result in [6] (after day 4 from the beginning of administration, vs physiological saline) is “significantly reduced”. Further, the Body weight entry in data set [6] (on day 8 from the beginning of administration, maintained during administration) is “significant body weight reduction”. In data set [7], the “blood CM-Tg concentration” value is reported as “not changed”, the “blood HDLc concentration” value was “not changed”, the “blood LDLc concentration” value is “significantly decreased” and the “blood VLDL-Tg concentration” value is “not changed”. For the same compound, in [8], the weight of kidney result was “No change” and the weight of spleen entry was “No change”. For the same compound, the “Hepatic Leprb gene expression” value with Hepatic Leprb expression is reported as “significantly increased”. In [9], the “muscle weight of gastrocnemius muscle” value was “not affected”, the “muscle weight of plantaris muscle” value is on record as “not affected” and the “muscle weight of soleus muscle” value was “not affected”. In addition, in [9] (vs physiological saline), the “amount of intestinal membrane fat” value is given as “not changed”, the “amount of peritesticular fat” value is “not changed” and the “amount of total visceral fat” value is on record as “not changed”. Moreover, in [10], the weight of heart entry was “significantly decreased” and the weight of liver result is reported as “significantly decreased”.

Turning to `NCCCNCCSP(=O)(O)O` [amifostine trihydrate], the Kd on Helz2 (setting [12]) fell in the range of 1 to 490 nM.

As for `CC1(C)[C@H](C(=O)O)N2C(=O)C[C@H]2S1(=O)=O` [sulbactam], the Kd on Helz2 (setting [12]) fell in the range of 1 to 490 nM.

Compound `CC(C)CC(N(C)C)C1(c2ccc(Cl)cc2)CCC1` (stereo not shown) [sibutramine hydrochloride] yielded a Kd at Helz2 (setting [13]) of 1 to 490 nM.

Consider `CC(C)(C)NCC(O)c1ccc(O)c(CO)c1` (stereo not shown) [salbutamol], for which the Kd on Helz2 (setting [12]) is 1 to 490 nM and 220 nM.

`CN(C)CCC(c1ccc(Br)cc1)c1ccccn1` (stereo not shown) [brompheniramine maleate]: the Kd at Helz2 (setting [12]) lay in the range of 1 to 490 nM.

For `COC(=O)Nc1nc2ccc(Sc3ccccc3)cc2[nH]1` [fenbendazole], on Helz2 (setting [12]), the Kd fell in the range of 1 to 490 nM.

As for `CC(NCCc1ccc(O)cc1)C(O)c1ccc(O)cc1` (stereo not shown) [ritodrine hydrochloride], the Kd at Helz2 (setting [12]) lay in the range of 1 to 490 nM.

For the compound `CCN(C)C(=O)Oc1cccc([C@H](C)N(C)C)c1` [rivastigmine tartrate], the Kd at Helz2 (setting [13]) is 1 to 490 nM.

On to `CN(C)C(=N)N=C(N)N` [Metformin], for which, in data set [11] (Table 1, comparator drugs), the “Blood HDLc” value is given as “→”, the “Blood LDLc” value is given as “→”, the Body weight result is recorded as “→” and the Fatty liver entry is reported as “→”. In data set [11] (Table 1, comparator drugs), the Hyperglycemia result is reported as “↓”, the Hypertension entry is listed as “→” and the Insulin resistance entry is “↓”. Further, in data set [11] (comparison, comparator drugs), the “action on insulin resistance” value is “ameliorate insulin resistance”, the anti-fatty liver action entry is listed as “does not exhibit anti-fatty liver action”, the anti-obesity action result was “does not exhibit anti-obesity action” and the hyperglycemia-mitigating action entry was “exhibits hyperglycemia-mitigating action”.

One may read the Kd as the concentration at which binding is half-saturated.
